BindingDB's records for doi:10.1016/j.bmcl.2005.08.057 (Novartis Institutes For Biomedical Research, 2005)

Biological target: C-C chemokine receptor type 1 (Rattus norvegicus)
Assay: Antagonistic activity at rat CCR1 in CHO-K1 cells
For `CC(=O)Nc1cc2ccccc2cc1/C=C/C(=O)N1CCN(Cc2ccc(F)cc2)C[C@H]1C` [(R)-N-(3-(3-(4-(4-fluorobenzyl)-2-methylpiperazin-1-yl)-3-oxoprop-1-enyl)naphthalen-2-yl)acetamide], the IC50 was 1500 nM. `CC(=O)Nc1cc2ncccc2cc1/C=C/C(=O)N1CCN(Cc2ccc(F)cc2)C[C@H]1C` [(R)-N-(6-(3-(4-(4-fluorobenzyl)-2-methylpiperazin-1-yl)-3-oxoprop-1-enyl)quinolin-7-yl)acetamide] gave an IC50 of 300 nM. Work on `COc1cc(/C=C/C(=O)N2C3CCC2CN(Cc2ccc(F)cc2)C3)c(NC(C)=O)cc1Cl` [N-(2-(3-(3-(4-fluorobenzyl)-3,8-diaza-bicyclo[3.2.1]octan-8-yl)-3-oxoprop-1-enyl)-5-chloro-4-methoxyphenyl)acetamide] yielded an IC50 of 1 nM. Molecule `CC(=O)Nc1cc2ncccc2cc1/C=C/C(=O)N1C2CCC1CN(Cc1ccc(F)cc1)C2` [N-(6-(3-(3-(4-fluorobenzyl)-3,8-diaza-bicyclo[3.2.1]octan-8-yl)-3-oxoprop-1-enyl)quinolin-7-yl)acetamide] has an IC50 of 6 nM. Molecule `CN(C)CC(=O)Nc1cc(Cl)ccc1/C=C/C(=O)N1C2CCC1CN(Cc1ccc(F)cc1)C2` [N-(2-(3-(3-(4-fluorobenzyl)-3,8-diaza-bicyclo[3.2.1]octan-8-yl)-3-oxoprop-1-enyl)-5-chlorophenyl)-2-(dimethylamino)acetamide] has an IC50 of 10 nM.

Biological target: not listed separately
Assay: Inhibitory effect on transwell chemotaxis induced by 1 nM MIP-1alpha in mouse pre-B cells transfected with human CCR1
With `COc1cc(/C=C/C(=O)N2C3CCC2CN(Cc2ccc(F)cc2)C3)c(NC(C)=O)cc1Cl` [N-(2-(3-(3-(4-fluorobenzyl)-3,8-diaza-bicyclo[3.2.1]octan-8-yl)-3-oxoprop-1-enyl)-5-chloro-4-methoxyphenyl)acetamide] the IC50 was 7.5 nM.
